Measured values as given in patent US20260176262A1, “KRAS INHIBITORS, PREPARATION METHOD THEREFOR, AND PHARMACEUTICAL USE THEREOF” (ABBISKO THERAPEUTICS CO., LTD., priority 2021, published 2026).
Read-outs that look alike come from different tables or passages of the source.

Legend:
KRAS^G12D/cRAF = KRAS^G12D/cRAF (Homo sapiens, UniProt P01116, G12D); experiment: KRAS G12D/cRAF binding test (Alphalisa); conditions: His-tagged KRAS G12D + GMPPNP, GST-tagged cRAF
In short: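 His-tagged KRAS G12D loaded with GMPPNP was incubated with compound (8-point 3-fold series from 5 mM DMSO stock) and then GST-cRAF for 15 min at room temperature. AlphaLISA detection followed after 60 min. IC50 came from a four-parameter fit of signal ratios against the DMSO control.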

AGS cell = experiment: Anti-proliferative 2D CTG assay, AGS cells; format: cell-based; conditions: Homo sapiens, 72 h
In short: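 Cells seeded at 1000/well overnight, then treated with 10-point 1:5 dilutions ([…], 0.1% DMSO) for 3 days at 37° C. Viability read by CellTiter-Glo luminescence; % inhibition versus HPE/ZPE controls, IC50 from four-parameter fit.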

[1] = Pharmacokinetic experiment in mice; conditions: male, ICR, mouse, plasma
Experimental: (§1) ICR mice male N=3 original source: Shanghai Sippr-Bk Lab Animal Co., Ltd.
(§2) Single oral (PO) administration in ICR mice: The compounds were weighed and added to the solvent of 0.5% CMC+1% Tween 80 respectively, well shaken, and ultrasonicated to get a light yellow suspension. 3 mice were administered orally after fasting overnight. The dose was 10 mg/kg.
(§3) About 90 μL/timepoint blood was collected through the orbital cavity, anticoagulated with sodium heparin, placed on ice after collection, and centrifuged to separate the plasma within 1 hour (centrifugation conditions: 8000 rpm, 6 m 2-8C). The blood collection timepoints were 0, 0.25, 0.5, 1, 2, 4, 6, 8 and 24 h. The samples were stored in a −20° C. refrigerator.
(§4) The plasma sample was 40 μL, 160 μL of ice-cold acetonitrile containing internal standard was added, vortexed for 1 minute, and centrifuged at 18,000 rpm for 10 minutes. The supernatant was transferred to a 96-well plate, and 5 μL was injected into LC-MS/MS for analysis.

in vivo = conditions: male, ICR, mouse, po, 10 mg/kg
Experimental: as §1, §2, §3, §4

[2] = AGS cells, incubated 3 days, CTG, class symbols, read-out: AGS cell IC50
[3] = AGS cells, incubated 3 days, CTG, numeric values, read-out: AGS cell IC50

Chain of KRAS^G12D/cRAF (P01116 1-188 isoform P01116-2 G12D): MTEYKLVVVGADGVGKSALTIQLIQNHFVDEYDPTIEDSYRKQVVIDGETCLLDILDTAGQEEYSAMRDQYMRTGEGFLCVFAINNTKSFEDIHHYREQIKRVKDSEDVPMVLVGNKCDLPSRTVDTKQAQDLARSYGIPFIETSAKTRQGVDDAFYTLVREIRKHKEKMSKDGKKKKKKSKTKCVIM

Structure (SMILES) | IC50 (KRAS^G12D/cRAF; class symbols) | IC50 (AGS cell; [2]) | AUC(0-t) ([1]; po, 10 mg/kg) | half-life ([1]; po, 10 mg/kg) | IC50 (KRAS^G12D/cRAF; numeric values) | IC50 (AGS cell; [3]) | AUC(0-t) (in vivo) | half-life (in vivo) | IC50 (AGS cell; AGS, read-out: AGS cell IC50 (nM)) | AUC(0-t) ([1]; iv, 2 mg/kg) | half-life ([1]; iv, 2 mg/kg) | bioavailability ([1]; po, 10 mg/kg)
[2H]C([2H])([2H])OCC12CCC(CN(c3nc(OC[C@@]45CCCN4C[C@H](F)C5)nc4c(F)c(-c5cc(O)cc6ccc(F)c(C#C)c56)ncc34)C1)N2 (stereo partly drawn) [Example 2, 5-ethynyl-6-fluoro-4-(8-fluoro-2-(((2R,7aS)-2-fluorotetrahydro-1H-pyrrolizin-7a(5H)-yl)methoxy)-4-(1-((methoxy-d3)methyl)-3,8-diazabicyclo [3.2.1]octan-3-yl)pyrido[4,3-d]pyrimidin-7-yl)naphthalen-2-ol] | 50 to 500 nM | < 50 nM | 602 ng·h/mL | 8.3 h | – | – | – | – | – | – | – | –
C#Cc1c(F)ccc2cc(O)cc(-c3ncc4c(N5CC6CCC(C=C)(C5)N6)nc(OC[C@@]56CCCN5C[C@H](F)C6)nc4c3F)c12 (stereo partly drawn) [Example 5, 5-ethynyl-6-fluoro-4-(8-fluoro-2-(((2R,7aS)-2-fluorotetrahydro-1H-pyrrolizin-7a(5H)-yl)methoxy)-4-(1-vinyl-3,8-diazabicyclo[3.2.1]octan-3-yl)pyrido[4,3-d]pyrimidin-7-yl)naphthalen-2-ol] | – | – | 489 ng·h/mL | 6.3 h | 72 nM | 15 nM | – | – | – | – | – | –
C#Cc1c(F)ccc2cc(O)cc(-c3ncc4c(N5CC6CCC(C(C)OC)(C5)N6)nc(OC[C@@]56CCCN5C[C@H](F)C6)nc4c3F)c12 (stereo partly drawn) [Example 12, 5-ethynyl-6-fluoro-4-(8-fluoro-2-(((2R,7aS)-2-fluorotetrahydro-1H-pyrrolizin-7a(5H)-yl)methoxy)-4-(1-(1-methoxyethyl)-3,8-diazabicyclo[3.2.1]octan-3-yl)pyrido[4,3-d]pyrimidin-7-yl) naphthalen-2-ol] | 50 to 500 nM | < 50 nM | 1740 ng·h/mL | 7.2 h | – | – | – | – | – | – | – | –
[2H]C([2H])([2H])OCC12CCC(CN(c3nc(OC[C@@]45CCCN4C[C@H](F)C5)nc4c(F)c(-c5cc(O)c(F)c6ccc(F)c(C#C)c56)ncc34)C1)N2 (stereo partly drawn) [Example 14, 5-ethynyl-1,6-difluoro-4-(8-fluoro-2-(((2R,7aS)-2-fluorotetrahydro-1H-pyrrolizin-7a(5H)-yl)methoxy)-4-(1-((methoxy-d3)methyl)-3,8-diazabicyclo[3.2.1]octan-3-yl)pyrido[4,3-d]pyrimidin-7-yl)naphthalen-2-ol] | – | > 500 nM | – | – | – | – | 607 ng·h/mL | 5.8 h | – | – | – | –
C#Cc1c(F)ccc2cc(O)cc(-c3ncc4c(N5CC6CCC(COCC)(C5)N6)nc(OC[C@@]56CCCN5C[C@H](F)C6)nc4c3F)c12 (stereo partly drawn) [Example 32, 4-(4-(1-(ethoxymethyl)-3,8-diazabicyclo[3.2.1]octan-3-yl)-8-fluoro-2-(((2R,7aS)-2-fluorotetrahydro-1H-pyrrolizin-7a(511)-yl)methoxy)pyrido[4,3-d]pyrimidin-7-yl)-5-ethynyl-6-fluoronaphthalen-2-ol] | 50 to 500 nM | – | 2200 ng·h/mL | 4.6 h | – | – | – | – | < 50 nM | – | – | –
[2H]C([2H])([2H])C12CCC(CN(c3nc(OC[C@@]45CCCN4C[C@H](F)C5)nc4c(F)c(-c5cc(O)cc6ccc(F)c(C#C)c56)nc(OC)c34)C1)N2 (stereo partly drawn) [Example 38, 5-ethynyl-6-fluoro-4-(8-fluoro-2-(((2R,7aS)-2-fluorotetrahydro-1H-pyrrolizin-7a(5H)-yl)methoxy)-5-methoxy-4-(1-(methyl-d3)-3,8-diazabicyclo [3.2.1]octan-3-yl)pyrido [4,3-d]pyrimidin-7-yl)naphthalen-2-ol] | < 50 nM | 50 to 500 nM | 115 ng·h/mL | 9.2 h | – | – | – | – | – | – | – | –
[2H]C([2H])([2H])[C@@]12CC[C@@H](CN(c3nc(OC[C@@]45CCCN4C[C@H](F)C5)nc4c(F)c(-c5cc(O)cc6ccc(F)c(C#C)c56)ncc34)C1)N2 [Example 43, 5-ethynyl-6-fluoro-4-(8-fluoro-2-(((2R,7aS)-2-fluorotetrahydro-1H-pyrrolizin-7a(5 H)-yl)methoxy)-4-((1R,5S)-1-(methyl-d3)-3,8-diazabicyclo[3.2.1]octan-3-yl)pyrido[4,3-d]pyrimidin-7-yl)naphthalen-2-ol] | – | – | 733 ng·h/mL | 15.7 h | 4.6 nM | 1.5 nM | – | – | – | 214 ng·h/mL | 5.4 h | 5.8%
[2H]C([2H])([2H])OC[C@@]12CC[C@@H](CN(c3nc(OC[C@@]45CCCN4C[C@H](F)C5)nc4c(F)c(-c5cc(O)cc6ccc(F)c(C#C)c56)nc(OC)c34)C1)N2 [Example 50, 5-ethynyl-6-fluoro-4-(8-fluoro-2-(((2R,7aS)-2-fluorotetrahydro-1H-pyrrolizin-7a(5H)-yl)methoxy)-5-methoxy-4-((1R,5S)-1-((methoxy-d3)methyl)-3,8-diazabicyclo[3.2.1]octan-3-yl)pyrido[4,3-d]pyrimidin-7-yl)naphthalen-2-ol] | – | – | 2660 ng·h/mL | 6.4 h | 10 nM | 6.5 nM | – | – | – | 1100 ng·h/mL | 6.7 h | 48%
C#Cc1c(F)ccc2cc(O)cc(-c3ncc4c(N5C[C@@H]6CC[C@](CC)(C5)N6)nc(OC[C@@]56CCCN5C[C@H](F)C6)nc4c3F)c12 [Example 54, 4-(4-((1R,5S)-1-ethyl-3,8-diazabicyclo[3.2.1]octan-3-yl)-8-fluoro-2-(((2R,7aS)-2-fluorotetrahydro-1H-pyrrolizin-7a(5H)-yl)methoxy)pyrido[4,3-d]pyrimidin-7-yl)-5-eth ynyl-6-fluoronaphthalen-2-ol] | – | – | 1160 ng·h/mL | 9.8 h | 55 nM | 7.3 nM | – | – | – | 460 ng·h/mL | 7.7 h | 51%
C#Cc1c(F)ccc2cc(O)cc(-c3ncc4c(N5C[C@H]6CC[C@@](CCF)(C5)N6)nc(OC[C@@]56CCCN5C[C@H](F)C6)nc4c3F)c12 [Example 55, 5-ethynyl-6-fluoro-4-(8-fluoro-4-((1R,5R)-1-(2-fluoroethyl)-3,8-diazabicyclo[3.2.1]octan-3-yl)-2-(((2R,7aS)-2-fluorotetrahydro-1H-pyrrolizin-7a(5H)-yl)methoxy)pyrido[4,3-d]pyrimidin-7-yl)naphthalen-2-ol] | – | 50 to 500 nM | 296 ng·h/mL | 7.4 h | – | – | – | – | – | – | – | –
C#Cc1c(F)ccc2cc(O)cc(-c3ncc4c(N5C[C@H]6CC[C@@](C=C)(C5)N6)nc(OC[C@@]56CCCN5C[C@H](F)C6)nc4c3F)c12 [Example 57, 5-ethynyl-6-fluoro-4-(8-fluoro-2-(((2R,7aS)-2-fluorotetrahydro-1H-pyrrolizin-7a(5 H)-yl)methoxy)-4-((1R,5R)-1-vinyl-3,8-diazabicyclo[3.2.1]octan-3-yl)pyrido[4,3-d]pyrimidin-7-yl)naphthalen-2-ol] | – | – | 1790 ng·h/mL | 4.5 h | 15 nM | 8.1 nM | – | – | – | 375 ng·h/mL | 5.1 h | 95%
C#Cc1c(F)ccc2cc(O)cc(-c3ncc4c(N5CC6CCC(C5)N6)nc(OC[C@@]56CCCN5C[C@H](F)C6)nc4c3F)c12 [Positive Compounds, reference compound] | – | – | 40 ng·h/mL | 1.6 h | – | – | – | – | – | 337 ng·h/mL | 3.1 h | 2.4%
